Assay results: article PMC8851282, “Senolysis induced by 25-hydroxycholesterol targets CRYAB in multiple cell types” (iScience, 2022)

Key:
SCs = test: Cell viability assay (cell counting kit-8) of senescent and non-senescent SCs treated with inhibitors; type: cell-based, mouse
Description: Figure 3 25HC is a senolytic in multiple muscle cell types (A) Targets, compounds, and mechanisms. (B) Timeline of cell viability assay with inhibitors. Cells were pre-cultured for 24 h, treated with Doxo for 24 h, and then treated with inhibitors. Cell viability was analyzed from day 0–7. (C–E) Effects of inhibitors on viability of FAPs, SCs, and HSMMs. Cells were treated with inhibitors at the indicated concentrations. Cell viability was analyzed on day 3 (HSMMs) or 5 (FAPs and SCs). Blue and red dots indicate non-senescent (NS) and senescent (SEN), respectively. The average value at 0 μM for each group was set at 100% cell viability. p values versus NS were obtained using unpaired two-tailed Student’s t test. ∗p < 0.05, ∗∗p < 0.01, and ∗∗∗p < 0.001.
Figure 4 EC50 fitted curves (triplicates) of inhibitor effects at 3 and 7 days in FAPS and SCs EC50 was defined as the concentration of inhibitors that provokes a response halfway between baseline and maximum senolytic activity. EC50 values were determined by four- parameter logistic modeling using GraphPad Prism 8.0.
Hind limb muscles were digested in DMEM containing 0.5% (w/v) collagenase type II (Worthington) for 90 min at 37 °C with trituration and passed through a 40-μm nylon mesh. Erythrocytes were eliminated by treating with BD Pharm Lyse (BD Biosciences). Cells were resuspended in a washing buffer of PBS with 2% FBS and stained with antibodies for 30 min at 4 °C as described ([Kamizaki et al., 2017]). FAPs and SCs were isolated from the suspension by FACS (Aria II, BD Biosciences) using anti-CD31, CD45, Sca-1, PDGFR and VCAM1 antibodies. FAPs were identified as Sca1/PDGFR-positive and CD31-, CD45- and VCAM1-negative cells ([Uezumi et al., 2010]). SCs were identified as VCAM1-positive and CD31-, CD45-, Sca-1 and PDGFR-negative cells ([Liu et al., 2015]).
(§1) All experiments were performed in incubators at 37 °C, 3% O2 and 5% CO2. Senescence was induced by treatment with either Doxo (250 nM for 24 h) ([Demaria et al., 2017]) or X-irradiation (10 Gy) ([Limbad et al., 2020]). For cell culture studies using 25HC, it was used at the indicated concentrations in the media.
FAPs and SCs were cultured on Matrigel-coated dishes (BD Biosciences) in growth medium (GM) consisting of DMEM plus 10% FBS, 1% penicillin-streptomycin and 10% MyoCult (STEMCELL Technologies) for 7 days. Human myogenic cell HSMMs (Lonza) were maintained according to the manufacturer’s instructions with SkGM-2 medium (Lonza).
Cell viability was assessed using a cell counting kit-8 from Dojindo Molecular Technologies, Inc (Cat CK04-20). Cells were incubated with culture media + 10% kit cell viability reagent, 150 μL/well in 96-well plates for 2 h. The supernatant was transferred to a new 96-well plate and absorbance read at 450 nm as recommended in the product datasheet.

[1] = system: human cardiac microvascular endothelial cells (hCMECs); test: Cell viability assay of NS and Doxo- or IR-induced senescent hCMECs treated with 25HC; type: cell-based; conditions: 10 μM after 15 days of treatment; Doxo or IR induced senescence
Description: Figure 7 25HC treatment timeline and its effects on NS and SEN hCMECs, hLSCs, hRPTECs, and hACs All cell types were treated with either DMSO, 250 nM Doxo or 10-Gy IR at the times shown. 25HC treatment was started 24 h after Doxo or IR treatment. Cell viability was measured every 3–5 days for 15 days. Optimal treatment times for maximum senolysis are shown for each cell type: day 15 for hCMECs, day 3 for hLSCs, day 9 for hRPTECs and day 12 for hACs. For qRT-PCR: mean ± SE, n =4, ∗p< 0.05, ∗∗p< 0.01, ∗∗∗p<0.001, ∗∗∗∗p<0.0001 by Dunnett’s multiple comparisons test vs DMSO or NS, For cell viability assays: mean ± SE, n =3, ∗∗p< 0.01, ∗∗∗p<0.001, ∗∗∗∗p<0.0001 vs 0 mM by student’s t test.
All experiments were performed in incubators at 37 °C, 3% O2 and 5% CO2. Senescence was induced by treatment with either Doxo (250 nM for 24 h) ([Demaria et al., 2017]) or X-irradiation (10 Gy) ([Limbad et al., 2020]). […]
Cell viability was assessed using a cell counting kit-8 from Dojindo Molecular Technologies, Inc (Cat CK04-20). […] The supernatant was transferred to a new 96-well plate and absorbance read at 450 nm as recommended in the product datasheet. […]
Supplementary Fig. 10 (related to Fig. 6-7). […] Cel l vi abi l i ty was measured every 3–5 days until 15 days. […] Cel l vi abi l i ty was measured every 3–5 days until 15 days. […]

[2] = system: human lung fibroblasts (IMR-90); test: Cell viability assay of NS and SEN IMR-90 cells treated with CRYAB and HMOX1 inhibitors; type: cell-based; conditions: 250 nM Doxo-induced senescence; viability after 72 h; 25HC at 10 or 50 μM
Description: The average value of DMSO was set at 1. (B and D) Effects of CRYAB and HMOX1 inhibitors on DMSO-treated NS or Doxo-treated SEN cells; (B) mDFs, (D) IMR-90s. Cells were treated with the inhibitors at the indicated concentrations. Cell viability was measured after 72 h. (C) IMR-90 qRT-PCR. For qPCR: mean +/- SE, n =4, ∗p< 0.05, ∗∗p< 0.01, ∗∗∗p<0.001, ∗∗∗∗p<0.0001 by Dunnett’s multiple comparisons test vs DMSO. For cell viability assays: mean +/- SE, n =3, ∗∗p< 0.01, ∗∗∗p<0.001, ∗∗∗∗p<0.0001 vs 0 mM by student’s t test.
as §1
IMR-90 cells were cultured in DMEM with 10% FBS. […]
Cell viability was assessed using a cell counting kit-8 from Dojindo Molecular Technologies, Inc (Cat CK04-20). […] The supernatant was transferred to a new 96-well plate and absorbance read at 450 nm as recommended in the product datasheet.

SMILES: C[C@H](CCCC(C)(C)O)[C@H]1CC[C@H]2[C@@H]3CC=C4C[C@@H](O)CC[C@]4(C)[C@H]3CC[C@]12C [25HC, 25-hydroxycholesterol]
- viability of senescent versus non-senescent SCs (SCs; Doxo-induced senescence, viability on day 5): decreased the viability of senescent SCs
- IC50 (SCs; Mus musculus, 168 h, SCs, 7 days in culture): 3.7 µM
- senolysis in hCMECs [1]: induced significant senolysis
- senolysis in IMR-90 cells [2]: induced significant senolysis
